Columns and labels:
CqsSVh = target: T1, CqsSVh (Vibrio campbellii, UniProt A7N6S2); experiment: V. harveyi bioluminescent reporter strain expressing cqsSVh; type: cell-based, Vibrio harveyi
T1 sequence (A7N6S2 1-681): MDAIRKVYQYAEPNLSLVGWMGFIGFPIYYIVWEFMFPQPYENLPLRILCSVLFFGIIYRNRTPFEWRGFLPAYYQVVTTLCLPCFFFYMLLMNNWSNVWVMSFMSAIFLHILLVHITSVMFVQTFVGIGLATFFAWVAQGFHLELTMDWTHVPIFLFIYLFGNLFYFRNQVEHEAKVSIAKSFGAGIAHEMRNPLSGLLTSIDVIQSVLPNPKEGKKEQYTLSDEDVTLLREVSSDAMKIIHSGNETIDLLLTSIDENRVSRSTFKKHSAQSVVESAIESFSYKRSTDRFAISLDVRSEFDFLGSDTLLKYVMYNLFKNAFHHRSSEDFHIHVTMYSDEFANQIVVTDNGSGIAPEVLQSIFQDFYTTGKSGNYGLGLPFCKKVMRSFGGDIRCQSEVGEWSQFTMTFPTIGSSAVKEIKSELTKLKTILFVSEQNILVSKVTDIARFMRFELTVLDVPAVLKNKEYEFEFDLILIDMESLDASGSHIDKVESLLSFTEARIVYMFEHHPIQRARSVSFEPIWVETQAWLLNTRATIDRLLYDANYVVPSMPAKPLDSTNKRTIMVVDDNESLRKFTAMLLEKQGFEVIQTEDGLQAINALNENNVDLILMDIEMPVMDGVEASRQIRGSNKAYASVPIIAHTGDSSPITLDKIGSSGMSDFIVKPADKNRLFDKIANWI

CqsSPa = experiment: V. harveyi bioluminescent reporter strain expressing cqsSPa; type: cell-based, Photobacterium angustum; details: for EC50: dose-dependent bioluminescence response
CqsSPa^S168C = type: cell-based, Photobacterium angustum; details: Fig. S2
CqsSVc = CqsSVc (Vibrio cholerae serotype O1, UniProt Q9KM66); experiment: V. harveyi bioluminescent reporter strain expressing cqsSVc; type: cell-based
Sequence of CqsSVc (Q9KM66 whole entry, looked up): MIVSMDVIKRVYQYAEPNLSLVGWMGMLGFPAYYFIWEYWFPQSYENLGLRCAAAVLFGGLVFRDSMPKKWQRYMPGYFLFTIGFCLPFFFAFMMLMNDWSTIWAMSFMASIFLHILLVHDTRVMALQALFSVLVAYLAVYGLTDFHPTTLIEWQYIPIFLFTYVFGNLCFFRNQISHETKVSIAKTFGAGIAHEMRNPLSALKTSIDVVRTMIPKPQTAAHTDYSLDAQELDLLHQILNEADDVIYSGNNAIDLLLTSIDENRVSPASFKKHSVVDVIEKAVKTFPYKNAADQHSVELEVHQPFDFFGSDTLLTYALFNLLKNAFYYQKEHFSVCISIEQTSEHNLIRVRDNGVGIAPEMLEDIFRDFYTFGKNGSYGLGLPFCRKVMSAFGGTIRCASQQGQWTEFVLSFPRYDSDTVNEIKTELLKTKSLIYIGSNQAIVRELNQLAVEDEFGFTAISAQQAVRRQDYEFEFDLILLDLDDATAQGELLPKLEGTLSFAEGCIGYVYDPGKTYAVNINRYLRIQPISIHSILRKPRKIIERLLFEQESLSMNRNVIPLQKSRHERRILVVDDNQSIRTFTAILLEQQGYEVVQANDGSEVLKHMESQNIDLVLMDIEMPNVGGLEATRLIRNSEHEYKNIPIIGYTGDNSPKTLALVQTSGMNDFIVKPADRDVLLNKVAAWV

Row | Structure (SMILES) | EC50 (CqsSVh) | light production (CqsSVh; reporter carrying cqsSVh, synthetic molecule at 5 μM) | response (light production) in dose-response (CqsSPa; reporter expressing CqsSPa) | EC50 (CqsSPa; reporter expressing CqsSPa) | increase in light production (CqsSPa; reporter carrying cqsSPa, synthetic molecule at 5 μM) | detection of CAI-1 molecules (CqsSPa^S168C) | EC50 (CqsSVc)
1 | C/C=C(\N)C(=O)CCCCCCC [Ea-C8-CAI-1, (Z)-3-aminoundec-2-en-4-one] | 100 nM | produced light | modest response |  |  |  | 
2 | CCCCCCCCCC(=O)[C@@H](O)CC [C10-CAI-1, (S)-3-hydroxytridecan-4-one] |  |  |  | 12 nM | ~ 1000 fold | retained the ability to detect | 
3 | C/C=C(\N)C(=O)CCCCCCCCC [Ea-C10-CAI-1] |  |  |  | 4 nM |  | retained the ability to detect | 150 nM
